Consider two molecules from article PMC11343376, “In vivo pharmacokinetics of ginsenoside compound K mediated by gut microbiota” (PLOS ONE, 2024).

A word on the AUC(0-inf): it is the area under the concentration-time curve extrapolated to infinity. The term Tmax denotes the time at which the peak concentration occurs. As a reminder, the half-life is how long it takes for the measured level to halve. Read a low half-life as rapid decline. A word on the Cmax: it is the highest concentration seen after dosing.

Where two headings read alike, the source gives them in different places.

The nature of series [1]: Pharmacokinetics of GCK in SPF and pseudo-GF rats after single oral administration (LC-MS/MS of plasma). It is filed as in vivo, Sprague-Dawley (SD) rats. The settings on record: for AUC(0-inf) / Tmax / half-life / AUC(0-t) / CL/F / MRT last / Vd/F / Cmax: Sprague-Dawley, rat, plasma, po, 22.5 mg/kg, GCK 22.5 mg/kg single oral dose; for AUC(0-t): read-out: AUC (0–11); for CL/F: read-out: CLz/F (converted); for MRT last: read-out: MRT(0–11); for Vd/F: read-out: Vz/F; for Cmax: rat plasma, n = 7, mean ± SD. As for the experimental part: SD rats were randomly divided into two groups: normal control group (SPF group, n = 7) and pseudo-GF group (n = 7). To deplete the gut microbiota, a solution of ampicillin (50 mg/kg), vancomycin (25 mg/kg), neomycin sulfate (50 mg/kg), and metronidazole (50 mg/kg) were orally administered. Fresh antibiotic concoction with fed ampicillin in water (0.25 g/L) were prepared every day for a week. The feces were collected three days after withdrawal, and then the gut bacterial DNA was extracted with a stool DNA kit (Omega, D4015-01) and measured by Nonodrop 3000 spectrophotometer (Shimadzu, Japan).
The mass spectrometer analysis was performed on QTRAP 6500^+ low mass spectrometers. The Phenomenex LUNA C18 (2) Reversed Phase (Phenomenex, 150 × 2.0 mm, i.d., 5 μm) was used for the chromatographic separation with a mobile phase of acetonitrile (A) and the aqueous phase of 2 mM ammonium acetate (B) at a flow rate of 0.3 mL/min. The gradient elution procedure was set at 0−2 min: 20%A, 2−3 min: 20−65%A, 3−4 min: 65−75%A, 4−5 min: 75−90%A, 5−6 min: 90−100%A, and the re-equilibration time was set for 5 mins with 20%A after gradient elution. The tailing factors under the selected chromatographic conditions were calculated as 0.993 and 0.996 for GCK and PPD, respectively, while the theoretical plates were measured as 1.13 × 10^4. The injection volume was 10 μL with the temperature of column at 40°C. The mass spectrometer parameters were optimized as follow, Curtain Gas (CUR), 35; collision gas, 9;, ionspray voltage,-4500 V; temperature, 450°C; curtain gas, 35 psi; ion source gas 1, 50 psi; ion source gas 2, 55 psi. Both GCK and PPD were analyzed in multiple reaction monitoring (MRM) mode, shown as Fig 1.
After fasted for 12 h, all animals were once orally administrated with a medium dose of GCK (22.5 mg/kg) in 0.9% normal saline. Blood samples were collected from the tail vein at 0 h, 0.5 h, 1 h, 1.5 h, 2.5 h, 3 h, 3.5 h, 4 h, 5 h, 6 h, 7 h, 9.5 h, and 11 h after oral administration. All blood samples were immediately centrifuged at 4000 rpm for 20 min at 4°C. Approximate 100 μL of supernatant was collected and stored at -80°C for analysis. Non-compartmental model analysis was operated on DAS 2.0 software of the Chinese Pharmacological Society, and pharmacokinetic parameters were calculated accordingly.
The blood samples (50 μL) were mixed with 150 μL of digoxin solution (Internal standard (IS), 3.33 ng/mL), subsequently vortex-mixed and centrifuged at 1.4 × 10^4 rpm (4°C) to remove the precipitated proteins for 10 min, respectively. Finally, 100 μL of supernatant was subjected to LC-MS/ MS analysis.
Pharmacokinetics parameters including AUC, terminal elimination half-life (T1/2), mean retention time (MRT), apparent distribution volume (Vz/ F), and clearance rate (CL) were calculated using non-compartmental model analysis (DAS 2.0 software, Chinese Pharmacological Association, China). Other parameters, such as maximum plasma concentration (Cmax) and time to maximum plasma concentration (Tmax), were obtained directly from the plasma concentration-time diagram. All data were expressed as mean ± SD. Significant differences were marked by the symbols ** p < 0.01, *** p < 0.001, and **** p < 0.0001.

A short description of series [2]: Freeze/thaw and long-term stability of QC samples in rat plasma. The series is classed as physicochemical. Particulars: n = 6; for Freeze/thaw stability Accuracy: frozen –80°C / thawed 25°C three cycles; for long-term stability Accuracy: –80°C for thirty days. As for the experimental part:
The LQC, MQC, and HQC samples were stored at –80°C for thirty days. The employed samples were tested to assess long-term stability. Six replicates of all QC samples were frozen at –80°C and thawed at 25°C for three cycles, which were then determined to assess the freeze/thaw cycle stability. The variabilities of precision and accuracy should be within15%.

Details of series [3]: method as in PMID 28955238. The settings on record: human plasma, single dose of oral GCK; ref [14]; cited from earlier work.
Where [4] appears, read: pseudo-GF rats compared with SPF rats.
[5] abbreviates: high QC (GCK 552, PPD 456 ng/mL).
[6] abbreviates: low QC (GCK 10.8, PPD 8.91 ng/mL).
[7] abbreviates: middle QC (GCK 86.3, PPD 71.3 ng/mL).

As for `CC(C)=CCCC(C)(OC1OC(CO)C(O)C(O)C1O)C1CCC2(C)C1C(O)CC1C3(C)CCC(O)C(C)(C)C3CCC12C` (stereo not drawn) [GCK, Ginsenoside Compound K], in series [1] (SPF group), the total exposure AUC(0-inf) amounted to 679 ± 284 ng·h/mL, the Tmax was determined as 3.36 ± 1.25 h, the half-life is 2.2 ± 1.69 h and the AUC(0-t) turned out to be 586 ± 161 ng·h/mL. Besides, in series [1] (SPF group), the CL/F is 632 mL/min/kg, the MRT last was 4.16 ± 1.11 h, the Vd/F is 96.5 ± 44.9 L/kg and the highest level (Cmax) was 162 ± 46.9 ng/mL. Further, in series [1] (pseudo-GF group), the AUC(0-inf) was 2300 ± 1630 ng·h/mL, the time to peak (Tmax) was found to be 5.86 ± 1.35 h, the half-life is 3.93 ± 1.65 h and the AUC(0-t) worked out at 1340 ± 402 ng·h/mL. In addition, in series [1] (pseudo-GF group), the CL/F was 226 mL/min/kg, the MRT last was found to be 6.05 ± 0.42 h, the Vd/F worked out at 63.2 ± 15.4 L/kg and the highest level (Cmax) was 259 ± 70 ng/mL. The AUC increased result in series [1] (pseudo-GF group compared with SPF group) is recorded as “approximately twice”. In series [1] (setting [4]), the “AUC 0–11 increased by” value came to 1.3 times and the “Cmax times higher than that of SPF rats” value is 1.6 times. The “CLz/F decreased by” value in series [1] (pseudo-GF rats compared with SPF rats, P <0.01) is 0.6 times. For the same molecule, in series [2] (setting [5]), the “Freeze/thaw stability Accuracy” value is listed as 104.11% and the “long-term stability Accuracy” value amounted to 103.91%. Further, in series [2] (setting [6]), the “Freeze/thaw stability Accuracy” value was determined as 102.76% and the “long-term stability Accuracy” value worked out at 95.56%. Besides, in series [2] (setting [7]), the “Freeze/thaw stability Accuracy” value is 106.47% and the “long-term stability Accuracy” value was 103.32%.

With `CC(C)=CCC[C@](C)(O)[C@H]1CC[C@]2(C)[C@@H]1[C@H](O)C[C@@H]1[C@@]3(C)CC[C@H](O)C(C)(C)[C@@H]3CC[C@]12C` [PPD, protopanaxadiol], the “Detection of the metabolite PPD in rat plasma” value in series [1] (after single oral GCK 22.5 mg/kg, both SPF and pseudo-GF groups, LLOQ 4.45 ng/mL) was “not detected”. For the same molecule, in series [3], the “Cmax of PPD” value is recorded as around 4.2 ng/mL, the “T1/2 of PPD” value is reported as “more than 19 hours” and the “Tmax of PPD” value was around 25 h. In series [2] (setting [5]), the “Freeze/thaw stability Accuracy” value is given as 89.65% and the “long-term stability Accuracy” value is 101.93%. In series [2] (setting [6]), the “Freeze/thaw stability Accuracy” value worked out at 92.44% and the “long-term stability Accuracy” value stood at 96.17%. Besides, in series [2] (setting [7]), the “Freeze/thaw stability Accuracy” value was determined as 93.50% and the “long-term stability Accuracy” value is given as 97.83%.
